Reference: patent publication US11912686B2 (Gilead Sciences, Inc., priority 2020, dated 2024)

Target: human LPAR1 (Homo sapiens (Human), UniProt Q92633)
Assay: LPAR1 intracellular calcium mobilization assay (antagonist mode, FLIPR)
Assay type: cell-based
Conditions: CHO-K1 EDG2 cells expressing human LPAR1, LPA 18:2 at EC80 (100 nM), test compound 0.5 nM to 10 μM

Chain of human LPAR1 (Q92633 whole entry): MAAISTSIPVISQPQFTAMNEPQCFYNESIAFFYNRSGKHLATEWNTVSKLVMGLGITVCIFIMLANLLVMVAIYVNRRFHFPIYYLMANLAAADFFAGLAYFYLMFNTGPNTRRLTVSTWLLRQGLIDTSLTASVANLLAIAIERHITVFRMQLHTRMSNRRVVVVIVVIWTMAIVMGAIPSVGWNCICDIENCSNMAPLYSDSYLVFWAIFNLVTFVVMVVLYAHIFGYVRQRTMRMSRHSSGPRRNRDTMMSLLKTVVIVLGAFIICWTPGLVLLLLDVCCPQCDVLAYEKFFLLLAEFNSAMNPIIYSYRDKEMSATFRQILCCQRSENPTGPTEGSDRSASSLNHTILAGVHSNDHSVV

Compound	EC50 [nM]
C[C@@H](OC(=O)Nc1c(-c2ccc(NC(=O)[C@H]3C[C@@H]3C)cn2)nnn1C)c1cc(F)cnc1F (mixture of isomers) [Compound 207, (R)-1-(2,5-difluoropyridin-3-yl)ethyl (1-methyl-4-(5-((1RS,2RS)-2-methylcyclopropane-1-carboxamido)pyridin-2-yl)-1H-1,2,3-triazol-5-yl)carbamate]	41.2
C[C@@H](OC(=O)Nc1c(-c2ccc(NC(=O)[C@@H]3C[C@H]3C(F)(F)F)cn2)nnn1C)c1cc(F)cnc1F (mixture of isomers) [Compound 209, (R)-1-(2,5-difluoropyridin-3-yl)ethyl (1-methyl-4-(5-((1RS,2RS)-2-(trifluoromethyl)cyclopropane-1-carboxamido)pyridin-2-yl)-1H-1,2,3-triazol-5-yl)carbamate]	17.7
CO[C@@H]1C[C@H]1C(=O)Nc1ccc(-c2nnn(C)c2NC(=O)O[C@H](C)c2cc(F)cnc2F)nc1 (mixture of isomers) [Compound 210, (R)-1-(2,5-difluoropyridin-3-yl)ethyl (4-(5-((1RS,2RS)-2-methoxycyclopropane-1-carboxamido)pyridin-2-yl)-1-methyl-1H-1,2,3-triazol-5-yl)carbamate]	243
C[C@@H](OC(=O)Nc1c(-c2ccc(NC(=O)[C@@H]3C[C@H]3[N+](=O)[O-])cn2)nnn1C)c1cc(F)cnc1F (mixture of isomers) [Compound 211, (R)-1-(2,5-difluoropyridin-3-yl)ethyl (1-methyl-4-(5-((1RS,2RS)-2-nitrocyclopropane-1-carboxamido)pyridin-2-yl)-1H-1,2,3-triazol-5-yl)carbamate]	37.4
C[C@@H](OC(=O)Nc1c(-c2ccc(NC(=O)[C@@H]3C[C@H]3C(F)F)cn2)nnn1C)c1cc(F)cnc1F (mixture of isomers) [Compound 216, (R)-1-(2,5-difluoropyridin-3-yl)ethyl (4-(5-((1RS,2RS)-2-(difluoromethyl)cyclopropane-1-carboxamido)pyridin-2-yl)-1-methyl-1H-1,2,3-triazol-5-yl)carbamate]	22.4
C[C@@H](OC(=O)Nc1c(-c2ccc(NC(=O)[C@@H]3C[C@H]3c3ccncc3)cn2)nnn1C)c1cc(F)cnc1F (mixture of isomers) [Compound 217, (R)-1-(2,5-difluoropyridin-3-yl)ethyl (1-methyl-4-(5-((1RS,2RS)-2-(pyridin-4-yl)cyclopropane-1-carboxamido)pyridin-2-yl)-1H-1,2,3-triazol-5-yl)carbamate]	58.1
C[C@@H](OC(=O)Nc1c(-c2ccc(NC(=O)[C@H]3[C@H](C4CC4)C3(F)F)cn2)nnn1C)c1cc(F)cnc1F (mixture of isomers) [Compound 248, (R)-1-(2,5-difluoropyridin-3-yl)ethyl (4-(5-((1RS,2SR)-3,3-difluoro-[1,1′-bi(cyclopropane)]-2-carboxamido)pyridin-2-yl)-1-methyl-1H-1,2,3-triazol-5-yl)carbamate]	29.8
C[C@@H](OC(=O)Nc1c(-c2ccc(NC(=O)[C@H]3[C@@H]4CS(=O)(=O)C[C@@H]43)cn2)nnn1C)c1cc(F)cnc1F (racemic) [Compound 229, (R)-1-(2,5-difluoropyridin-3-yl)ethyl (4-(5-((1RS,5SR,6SR)-3,3-dioxido-3-thiabicyclo[3.1.0]hexane-6-carboxamido)pyridin-2-yl)-1-methyl-1H-1,2,3-triazol-5-yl)carbamate]	864
C[C@@H](OC(=O)Nc1c(-c2ccc(NC(=O)C(F)(F)F)cc2)nnn1C)c1cccc(F)c1 [Compound 1, (R)-1-(3-fluorophenyl)ethyl (1-methyl-4-(4-(2,2,2-trifluoroacetamido)phenyl)-1H-1,2,3-triazol-5-yl)carbamate]	6520
C[C@@H](OC(=O)Nc1c(-c2ncc(NC(=O)C3(C#N)CC3)cn2)nnn1C)c1cccnc1Cl [Compound 2, [(1R)-1-(2-chloro-3-pyridyl)ethyl] N-[5-[5-[(1-cyanocyclopropanecarbonyl)amino]pyrimidin-2-yl]-3-methyl-triazol-4-yl]carbamate]	953
CNC(=O)Nc1ccc(-c2nnn(C)c2NC(=O)O[C@H](C)c2ccccc2Cl)cn1 [Compound 3]	10000
CC(=O)Nc1ccc(-c2nnn(C)c2NC(=O)O[C@H](C)c2cccnc2Cl)nc1F [Compound 5, [(1R)-1-(2-chloro-3-pyridyl)ethyl] N-[5-(5-acetamido-6-fluoro-2-pyridyl)-3-methyl-triazol-4-yl]carbamate]	1510
CC(=O)Nc1ccc(-c2nnn(C)c2NC(=O)O[C@H](C)c2cccnc2Cl)cc1 [Compound 6, (R)-1-(2-chloropyridin-3-yl)ethyl (4-(4-acetamidophenyl)-1-methyl-1H-1,2,3-triazol-5-yl)carbamate]	1860

Further molecules by falling EC50, results first:

EC50 [nM]	Compound
71.8	C[C@@H](OC(=O)Nc1c(-c2ccc(NC(=O)[C@@H]3C[C@H]3C#N)cn2)nnn1C)c1cc(F)cnc1Cl (mixture of isomers) [Compound 285, (R)-1-(2-chloro-5-fluoropyridin-3-yl)ethyl (4-(5-((1RS,2RS)-2-cyanocyclopropane-1-carboxamido)pyridin-2-yl)-1-methyl-1H-1,2,3-triazol-5-yl)carbamate]
52.5	C[C@@H](OC(=O)Nc1c(-c2ccc(NC(=O)[C@@H]3C[C@H]3c3ccncc3Cl)cn2)nnn1C)c1cc(F)cnc1F (mixture of isomers) [Compound 238, (R)-1-(2,5-difluoropyridin-3-yl)ethyl (4-(5-((1RS,2RS)-2-(3-chloropyridin-4-yl)cyclopropane-1-carboxamido)pyridin-2-yl)-1-methyl-1H-1,2,3-triazol-5-yl)carbamate]
26.7	C[C@@H](OC(=O)Nc1c(-c2ccc(NC(=O)[C@H]3[C@@H]4CC(F)(F)C[C@@H]43)cn2)nnn1C)c1cc(F)cnc1F (racemic) [Compound 230, (R)-1-(2,5-difluoropyridin-3-yl)ethyl (4-(5-((1RS,5SR,6SR)-3,3-difluorobicyclo[3.1.0]hexane-6-carboxamido)pyridin-2-yl)-1-methyl-1H-1,2,3-triazol-5-yl)carbamate]
21.1	C[C@@H](OC(=O)Nc1c(-c2ccc(NC(=O)[C@@H]3C[C@H]3CF)cn2)nnn1C)c1cc(F)cnc1F (mixture of isomers) [Compound 208, (R)-1-(2,5-difluoropyridin-3-yl)ethyl (4-(5-((1RS,2RS)-2-(fluoromethyl)cyclopropane-1-carboxamido)pyridin-2-yl)-1-methyl-1H-1,2,3-triazol-5-yl)carbamate]
19.3	C[C@@H](OC(=O)Nc1c(-c2ccc(NC(=O)[C@@H]3C[C@H]3c3ccc(F)nc3)cn2)nnn1C)c1cc(F)cnc1F (mixture of isomers) [Compound 237, (R)-1-(2,5-difluoropyridin-3-yl)ethyl (4-(5-((1RS,2RS)-2-(6-fluoropyridin-3-yl)cyclopropane-1-carboxamido)pyridin-2-yl)-1-methyl-1H-1,2,3-triazol-5-yl)carbamate]
13	C[C@@H](OC(=O)Nc1c(-c2ccc(NC(=O)[C@H]3[C@H](c4ccccc4)C3(F)F)cn2)nnn1C)c1cc(F)cnc1F (mixture of isomers) [Compound 247, (R)-1-(2,5-difluoropyridin-3-yl)ethyl (4-(5-((1RS,3RS)-2,2-difluoro-3-phenylcyclopropane-1-carboxamido)pyridin-2-yl)-1-methyl-1H-1,2,3-triazol-5-yl)carbamate]
